Laboratory results published in patent publication US12202835B2, “Substituted aromatic ring-linked dioxinoquinazolines and dioxinoquinolines as kinase inhibitors” (BEIJING SCITECH-MQ PHARMACEUTICALS LIMITED, priority 2018, dated 2025).

Legend:
Type in all cases: biochemical
[1] = molecular target: TRKA kinase (Homo sapiens (Human), UniProt P04629); assay: Assay of small molecular compounds for inhibiting the activity of TRKA kinase (LANCE TR-FRET)
How it was run: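 LANCE TR-FRET with ULight-TK peptide; compounds pre-incubated 5 min with TRKA (2× solution 2 nM), then substrate/ATP added (4× mix: 400 nM peptide, 40 μM ATP). Reaction 60 min at room temperature in dark, 1% DMSO final; stopped, detection developed 60 min, signal read.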

[2] = molecular target: MER kinase (Homo sapiens (Human), UniProt Q12866); assay: Assay of small molecular compounds for inhibiting the activity of MER kinase (LANCE TR-FRET)
Chain of MER kinase (Q12866 21-999): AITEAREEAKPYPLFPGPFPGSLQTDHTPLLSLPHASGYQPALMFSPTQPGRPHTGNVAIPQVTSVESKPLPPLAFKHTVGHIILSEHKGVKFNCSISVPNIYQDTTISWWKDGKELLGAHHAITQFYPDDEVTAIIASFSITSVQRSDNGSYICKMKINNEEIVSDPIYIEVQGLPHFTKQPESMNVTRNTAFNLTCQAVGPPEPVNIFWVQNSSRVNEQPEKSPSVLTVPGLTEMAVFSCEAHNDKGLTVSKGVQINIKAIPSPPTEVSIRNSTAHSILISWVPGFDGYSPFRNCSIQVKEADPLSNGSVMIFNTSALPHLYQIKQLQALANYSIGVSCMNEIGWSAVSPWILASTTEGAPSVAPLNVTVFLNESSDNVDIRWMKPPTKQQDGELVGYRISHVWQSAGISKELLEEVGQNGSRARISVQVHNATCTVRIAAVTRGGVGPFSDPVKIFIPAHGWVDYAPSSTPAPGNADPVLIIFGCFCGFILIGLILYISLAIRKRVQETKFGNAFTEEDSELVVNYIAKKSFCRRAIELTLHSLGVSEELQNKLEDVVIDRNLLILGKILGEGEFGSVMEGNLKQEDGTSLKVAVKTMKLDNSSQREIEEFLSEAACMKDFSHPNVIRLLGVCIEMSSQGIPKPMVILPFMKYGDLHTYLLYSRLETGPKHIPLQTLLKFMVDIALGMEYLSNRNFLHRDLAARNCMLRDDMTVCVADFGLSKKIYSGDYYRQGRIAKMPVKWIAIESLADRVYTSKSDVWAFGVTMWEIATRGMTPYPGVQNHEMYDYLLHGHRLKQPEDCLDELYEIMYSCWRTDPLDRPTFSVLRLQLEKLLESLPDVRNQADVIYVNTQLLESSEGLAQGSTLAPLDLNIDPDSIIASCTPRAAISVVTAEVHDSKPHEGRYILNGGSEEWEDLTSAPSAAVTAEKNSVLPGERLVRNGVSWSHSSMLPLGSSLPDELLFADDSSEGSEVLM
How it was run: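 MER kinase preincubated 5 min at RT with compound (11 points, 0.042-2500 nM final), then ULight-poly GT and ATP added (4× stocks 200 nM and 20 μM) for 60 min at RT, 1% DMSO. Phosphorylation detected by LANCE TR-FRET; IC50 from % inhibition versus controls.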

[3] = molecular target: VEGFR-2 kinase (Homo sapiens (Human), UniProt P35968); assay: Assay of small molecular compounds for inhibiting the activity of VEGFR-2 kinase (LANCE TR-FRET); conditions: read-out: VEGFR2 IC50
Chain of VEGFR-2 kinase (P35968 20-1356): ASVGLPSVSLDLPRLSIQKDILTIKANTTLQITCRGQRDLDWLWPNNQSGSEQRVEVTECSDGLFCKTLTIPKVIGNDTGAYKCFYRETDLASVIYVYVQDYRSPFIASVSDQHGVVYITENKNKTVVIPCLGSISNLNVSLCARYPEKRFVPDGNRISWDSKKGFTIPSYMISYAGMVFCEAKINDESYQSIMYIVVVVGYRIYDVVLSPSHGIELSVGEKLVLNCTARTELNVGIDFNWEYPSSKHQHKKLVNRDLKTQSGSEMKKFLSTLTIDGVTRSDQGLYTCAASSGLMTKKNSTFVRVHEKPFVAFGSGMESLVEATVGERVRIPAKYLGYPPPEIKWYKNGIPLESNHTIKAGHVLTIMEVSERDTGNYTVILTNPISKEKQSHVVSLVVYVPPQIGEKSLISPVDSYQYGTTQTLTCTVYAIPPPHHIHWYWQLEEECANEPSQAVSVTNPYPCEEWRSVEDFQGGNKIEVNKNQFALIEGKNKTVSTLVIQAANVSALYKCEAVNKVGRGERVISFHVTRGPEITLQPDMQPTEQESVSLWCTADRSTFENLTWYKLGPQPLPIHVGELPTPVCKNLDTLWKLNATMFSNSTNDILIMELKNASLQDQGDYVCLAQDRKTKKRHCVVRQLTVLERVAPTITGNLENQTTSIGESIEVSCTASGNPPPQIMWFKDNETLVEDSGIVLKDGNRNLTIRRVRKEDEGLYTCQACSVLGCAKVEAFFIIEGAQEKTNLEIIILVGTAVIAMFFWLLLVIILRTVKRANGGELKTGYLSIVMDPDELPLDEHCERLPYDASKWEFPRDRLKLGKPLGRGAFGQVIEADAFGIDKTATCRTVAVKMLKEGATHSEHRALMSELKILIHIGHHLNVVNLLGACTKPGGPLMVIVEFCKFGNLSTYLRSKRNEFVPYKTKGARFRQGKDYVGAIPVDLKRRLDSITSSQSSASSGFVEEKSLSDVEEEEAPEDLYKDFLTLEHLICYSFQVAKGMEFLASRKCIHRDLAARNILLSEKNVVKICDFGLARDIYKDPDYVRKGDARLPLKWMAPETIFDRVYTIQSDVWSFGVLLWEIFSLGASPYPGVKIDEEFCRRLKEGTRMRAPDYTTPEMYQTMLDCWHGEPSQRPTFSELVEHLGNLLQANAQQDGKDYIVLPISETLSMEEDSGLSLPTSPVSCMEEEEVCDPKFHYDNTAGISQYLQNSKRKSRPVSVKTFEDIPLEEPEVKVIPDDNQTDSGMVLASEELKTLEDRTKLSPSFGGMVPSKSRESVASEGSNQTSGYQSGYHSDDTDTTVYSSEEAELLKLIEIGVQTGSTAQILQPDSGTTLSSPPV
How it was run: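 LANCE TR-FRET with human VEGFR-2 (2× stock 0.5 nM) preincubated 30 min with compound (final 2500 to 0.042 nM, 11-point 3-fold), then ULight-JAK-1 (Tyr1023) peptide/ATP added (4× stocks 200 nM/40 μM). Reaction 60 min room temperature, 4% DMSO; IC50 from inhibition-rate curve.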

Chain of TRKA kinase (P04629 33-796): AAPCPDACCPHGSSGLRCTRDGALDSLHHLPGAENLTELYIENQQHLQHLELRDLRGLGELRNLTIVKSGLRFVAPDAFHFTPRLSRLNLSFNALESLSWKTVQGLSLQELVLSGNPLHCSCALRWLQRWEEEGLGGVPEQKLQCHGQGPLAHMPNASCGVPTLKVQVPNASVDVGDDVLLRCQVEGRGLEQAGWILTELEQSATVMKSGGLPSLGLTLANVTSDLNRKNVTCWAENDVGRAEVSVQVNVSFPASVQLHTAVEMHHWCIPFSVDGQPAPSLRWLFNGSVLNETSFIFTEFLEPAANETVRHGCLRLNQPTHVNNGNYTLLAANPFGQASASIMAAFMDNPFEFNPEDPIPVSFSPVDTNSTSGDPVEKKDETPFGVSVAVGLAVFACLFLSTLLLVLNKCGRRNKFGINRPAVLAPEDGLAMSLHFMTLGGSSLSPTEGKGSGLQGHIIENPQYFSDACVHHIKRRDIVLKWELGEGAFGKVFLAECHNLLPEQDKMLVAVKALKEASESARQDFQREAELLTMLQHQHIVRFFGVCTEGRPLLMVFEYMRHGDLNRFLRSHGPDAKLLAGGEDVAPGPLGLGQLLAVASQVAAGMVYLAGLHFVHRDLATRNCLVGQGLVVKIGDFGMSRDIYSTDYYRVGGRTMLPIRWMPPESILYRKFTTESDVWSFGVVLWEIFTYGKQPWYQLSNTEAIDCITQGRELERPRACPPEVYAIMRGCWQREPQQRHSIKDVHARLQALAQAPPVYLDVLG

## CCOc1ccn(-c2ccc(F)cc2)c(=O)c1C(=O)Nc1ccc(Oc2ccnc3cc(OC)c4c(c23)OCCO4)cc1Cl [Example 126, N-(2-chloro-4-((5-methoxy-2,3-dihydro-[1,4]dioxino[2,3-f]quinolin-10-yl)oxy)phenyl)-1-(4-fluorophenyl)-4-ethoxy-2-oxo-1,2-dihydropyridine-3-carboxamide]
[1]
  IC50: < 50 nM
[2]
  IC50: ≤ 50 nM
[3]
  IC50: 50 to 500 nM

## CCOc1cc2nccc(Oc3ccc(NC(=O)c4cccn(-c5ccc(F)cc5)c4=O)c(Cl)c3)c2c2c1OCCO2 [Example 127, N-(2-chloro-4-((5-ethoxy-2,3-dihydro-[1,4]dioxino[2,3-f]quinolin-10-yl)oxy)phenyl)-1-(4-fluorophenyl)-2-oxo-1,2-dihydropyridine-3-carboxamide]
[1]
  IC50: < 50 nM
[2]
  IC50: ≤ 50 nM
[3]
  IC50: 500 to 5000 nM

## CCOc1cc2nccc(Oc3ccc(NC(=O)c4c(OC)ccn(-c5ccc(F)cc5)c4=O)c(Cl)c3)c2c2c1OCCO2 [Example 128, N-(2-chloro-4-((5-ethoxy-2,3-dihydro-[1,4]dioxino[2,3-f]quinolin-10-yl)oxy)phenyl)-1-(4-fluorophenyl)-4-methoxy-2-oxo-1,2-dihydropyridine-3-carboxamide]
[1]
  IC50: < 50 nM
[2]
  IC50: ≤ 50 nM
[3]
  IC50: 500 to 5000 nM

## CCOc1cc2nccc(Oc3ccc(NC(=O)c4cn(C)c(=O)n(-c5ccc(F)cc5)c4=O)c(Cl)c3)c2c2c1OCCO2 [Example 129, N-(2-chloro-4-((5-ethoxy-2,3-dihydro-[1,4]dioxino[2,3-f]quinolin-10-yl)oxy)phenyl)-3-(4-fluorophenyl)-1-methyl-2,4-dioxo-1,2,3,4-tetrahydropyrimidine-5-carboxamide]
[1]
  IC50: < 50 nM
[2]
  IC50: ≤ 50 nM
[3]
  IC50: 500 to 5000 nM

## CCOc1cc2nccc(Oc3ccc(NC(=O)c4c(OCC)ccn(-c5ccc(F)cc5)c4=O)c(Cl)c3)c2c2c1OCCO2 [Example 130, N-(2-chloro-4-((5-ethoxy-2,3-dihydro-[1,4]dioxino[2,3-f]quinolin-10-yl)oxy)phenyl)-1-(4-fluorophenyl)-4-ethoxy-2-oxo-1,2-dihydropyridine-3-carboxamide]
[1]
  IC50: < 50 nM
[2]
  IC50: ≤ 50 nM
[3]
  IC50: 50 to 500 nM

## COc1ccn(-c2ccc(F)cc2)c(=O)c1C(=O)Nc1ccc(Oc2ccnc3cc(OCCCC#N)c4c(c23)OCCO4)cc1Cl [Example 132, N-(2-chloro-4-((5-(3-cyanopropoxy)-2,3-dihydro-[1,4]dioxino[2,3-f]quinolin-10-yl)oxy)phenyl)-1-(4-fluorophenyl)-4-methoxy-2-oxo-1,2-dihydropyridine-3-carboxamide]
[1]
  IC50: < 50 nM
[2]
  IC50: ≤ 50 nM
[3]
  IC50: 500 to 5000 nM

## CCOc1ccn(-c2ccc(F)cc2)c(=O)c1C(=O)Nc1ccc(Oc2ccnc3cc(OCCCC#N)c4c(c23)OCCO4)cc1Cl [Example 134, N-(2-chloro-4-((5-(3-cyanopropoxy)-2,3-dihydro-[1,4]dioxino[2,3-f]quinolin-10-yl)oxy)phenyl)-1-(4-fluorophenyl)-4-ethoxy-2-oxo-1,2-dihydropyridine-3-carboxamide]
[1]
  IC50: < 50 nM
[2]
  IC50: ≤ 50 nM
[3]
  IC50: 50 to 500 nM

## O=C(Nc1ccc(Oc2ccnc3cc(OCCCN4CCCCC4)c4c(c23)OCCO4)cc1Cl)c1cccn(-c2ccc(F)cc2)c1=O [Example 135, N-(2-chloro-4-((5-((3-piperidin-1-yl)propoxy)-2,3-dihydro-[1,4]dioxino[2,3-f]quinolin-10-yl)oxy)phenyl)-1-(4-fluorophenyl)-2-oxo-1,2-dihydropyridine-3-carboxamide]
[1]
  IC50: < 50 nM
[2]
  IC50: ≤ 50 nM
[3]
  IC50: ≤ 50 nM

## COc1ccn(-c2ccc(F)cc2)c(=O)c1C(=O)Nc1ccc(Oc2ccnc3cc(OCCCN4CCCCC4)c4c(c23)OCCO4)cc1Cl [Example 136, N-(2-chloro-4-((5-((3-piperidin-1-yl)propoxy)-2,3-dihydro-[1,4]dioxino[2,3-f]quinolin-10-yl)oxy)phenyl)-1-(4-fluorophenyl)-4-methoxy-2-oxo-1,2-dihydropyridine-3-carboxamide]
[1]
  IC50: < 50 nM
[2]
  IC50: ≤ 50 nM
[3]
  IC50: 50 to 500 nM

## Cn1cc(C(=O)Nc2ccc(Oc3ccnc4cc(OCCCN5CCCCC5)c5c(c34)OCCO5)cc2Cl)c(=O)n(-c2ccc(F)cc2)c1=O [Example 137, N-(2-chloro-4-((5-((3-piperidin-1-yl)propoxy)-2,3-dihydro-[1,4]dioxino[2,3-f]quinolin-10-yl)oxy)phenyl)-3-(4-fluorophenyl)-1-methyl-2,4-dioxo-1,2,3,4-tetrahydropyrimidine-5-carboxamide]
[1]
  IC50: < 50 nM
[2]
  IC50: ≤ 50 nM
[3]
  IC50: 50 to 500 nM

## CCOc1ccn(-c2ccc(F)cc2)c(=O)c1C(=O)Nc1ccc(Oc2ccnc3cc(OCCCN4CCCCC4)c4c(c23)OCCO4)cc1Cl [Example 138, N-(2-chloro-4-((5-((3-piperidin-1-yl)propoxy)-2,3-dihydro-[1,4]dioxino[2,3-f]quinolin-10-yl)oxy)phenyl)-1-(4-fluorophenyl)-4-ethoxy-2-oxo-1,2-dihydropyridine-3-carboxamide]
[1]
  IC50: < 50 nM
[2]
  IC50: ≤ 50 nM
[3]
  IC50: ≤ 50 nM

## CC(C)(O)COc1cc2nccc(Oc3ccc(NC(=O)c4cccn(-c5ccc(F)cc5)c4=O)c(Cl)c3)c2c2c1OCCO2 [Example 139, N-(2-chloro-4-((5-(2-hydroxy-2-methylpropoxy)-2,3-dihydro-[1,4]dioxino[2,3-f]quinolin-10-yl)oxy)phenyl)-1-(4-fluorophenyl)-2-oxo-1,2-dihydropyridine-3-carboxamide]
[1]
  IC50: < 50 nM
[2]
  IC50: ≤ 50 nM
[3]
  IC50: 50 to 500 nM

## COc1ccn(-c2ccc(F)cc2)c(=O)c1C(=O)Nc1ccc(Oc2ccnc3cc(OCC(C)(C)O)c4c(c23)OCCO4)cc1Cl [Example 140, N-(2-chloro-4-((5-(2-hydroxy-2-methylpropoxy)-2,3-dihydro-[1,4]dioxino[2,3-f]quinolin-10-yl)oxy)phenyl)-1-(4-fluorophenyl)-4-methoxy-2-oxo-1,2-dihydropyridine-3-carboxamide]
[1]
  IC50: < 50 nM
[2]
  IC50: ≤ 50 nM
[3]
  IC50: 500 to 5000 nM

## CCOc1ccn(-c2ccc(F)cc2)c(=O)c1C(=O)Nc1ccc(Oc2ccnc3cc(OCC(C)(C)O)c4c(c23)OCCO4)cc1Cl [Example 142, N-(2-chloro-4-((5-(2-hydroxy-2-methylpropoxy)-2,3-dihydro-[1,4]dioxino[2,3-f]quinolin-10-yl)oxy)phenyl)-1-(4-fluorophenyl)-4-ethoxy-2-oxo-1,2-dihydropyridine-3-carboxamide]
[1]
  IC50: < 50 nM
[2]
  IC50: ≤ 50 nM
[3]
  IC50: 50 to 500 nM

## O=C(Nc1ccc(Oc2ccnc3cc(OCCCN4CCOCC4)c4c(c23)OCCO4)cc1Cl)c1cccn(-c2ccc(F)cc2)c1=O [Example 143, N-(2-chloro-4-((5-(3-morpholinopropoxy)-2,3-dihydro-[1,4]dioxino[2,3-f]quinolin-10-yl)oxy)phenyl)-1-(4-fluorophenyl)-2-oxo-1,2-dihydropyridine-3-carboxamide]
[1]
  IC50: < 50 nM
[2]
  IC50: ≤ 50 nM
[3]
  IC50: ≤ 50 nM

## Cn1cc(C(=O)Nc2ccc(Oc3ccnc4ccc5c(c34)OCCO5)cc2F)c(=O)n(-c2ccc(F)cc2)c1=O [Example 162, N-(4-((2,3-dihydro-[1,4]dioxino[2,3-f]quinolin-10-yl)oxy)-2-fluorophenyl)-3-(4-fluorophenyl)-1-methyl-2,4-dioxo-1,2,3,4-tetrahydropyrimidine-5-carboxamide]
[1]
  IC50: < 50 nM
[2]
  IC50: 50 to 500 nM
[3]
  IC50: 500 to 5000 nM
